Numbering of substitutions follows the chain as printed. Where two headings read alike, the source gives them in different places.
Assays:
human M1 = target: T1, human M1 (Homo sapiens, UniProt P11229); assay: M1 PAM assay (FLIPR intracellular calcium, CHO human M1); type: cell-based
T1 construct: expressed in transfected cells; host or cells: CHO cells
T1 sequence (P11229 1-460): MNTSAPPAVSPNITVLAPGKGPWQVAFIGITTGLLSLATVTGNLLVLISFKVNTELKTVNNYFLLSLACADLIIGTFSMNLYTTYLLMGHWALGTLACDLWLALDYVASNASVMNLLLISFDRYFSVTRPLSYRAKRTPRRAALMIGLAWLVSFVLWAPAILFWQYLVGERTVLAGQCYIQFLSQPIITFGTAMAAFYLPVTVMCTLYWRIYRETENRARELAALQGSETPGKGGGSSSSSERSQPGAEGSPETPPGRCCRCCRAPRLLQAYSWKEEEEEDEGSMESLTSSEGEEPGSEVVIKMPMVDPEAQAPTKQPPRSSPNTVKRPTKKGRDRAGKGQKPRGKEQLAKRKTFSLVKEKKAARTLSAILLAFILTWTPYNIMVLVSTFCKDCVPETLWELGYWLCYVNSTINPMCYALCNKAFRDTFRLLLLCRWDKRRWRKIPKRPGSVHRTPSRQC
Protocol: The assay study the effect of several concentrations of test compounds on basal or acetylcholine-stimulated Ca^2+ levels using FLIPR. CHO human M1 are plated the day before the experiments at 2×10^5 cells/ml in PDL BioCoat 96 well black/clear plate (Becton 35 4640). The cells are grown at 37° C. and 5% CO2 in the following medium: F12 Nut Mix (Gibco 21765), 10% FCS heat inactivated (GIBCO 16000-044), 1% Pen Strep (Gibco, 15140) and 200 μg/ml Geneticin (Gibco 11811). On the day of the experiment, the medium was removed and replaced by 100 μl of dye loading buffer containing Hanks Balanced Salt solution (HBSS, 14065-049, Gibco) with 20 mM HEPES (Gibco 15630-056), 2 mM Probenicid (Sigma P8761), […] (Molecular Probes F-14202), 10% Pluronic acid Molecular Probes P-3000) pH=7.4 and incubated at 37° C. After 60 minutes extracellular dye was removed and the cells were washed five times with FLIPR buffer containing HBSS (Gibco 14065-049) with 20 mM HEPES (Gibco, 15630-056), 2 mM Probenicid (Sigma P8761) pre-warmed at 37° C. using and Ebml cell washer leaving 100 μl of FLIPR buffer in each well. The cell plate and the diluted compounds (1% DMSO final concentration) are placed on the platform of the FLIPR and the door closed. A signal test to check background fluorescence and basal fluorescence signal is performed. Laser intensity is adjusted if necessary. Two minutes preincubation with the diluted test compounds is provide to determine any agonist activity on the M1 receptor by comparison to 30 nM Acetylcholine control. In order to determine any modulator activity the diluted compounds were added to cells and after two minutes preincubation, the EC20 of acetylcholine is added followed by another two minutes preincubation before the measurement of intracellular Ca^2+ with a FLIPR (Molecular Devices).

M1 receptor = target: T2, M1 receptor (Rattus norvegicus, UniProt P08482); assay: M1 PAM assay (FLIPR intracellular calcium), rat; type: cell-based
T2 construct: expressed in transfected cells
T2 sequence (P08482 1-460): T1 sequence (P11229 1-460) with A5V, T254S, P309S, R320K, A337G, I413V

[1] = human M1 in CHO cells, modulator activity with EC20 of acetylcholine, FLIPR Ca2+, read-out: EC50 h PAM

Q: Which results are given for `Cn1cc(-c2ccc(Cn3cc(C(=O)N[C@H]4CCOC[C@@H]4O)c4ncccc43)c(F)c2)cn1` (racemic) [Example 4, 1-(2-fluoro-4-(1-methyl-1H-pyrazol-4-yl)benzyl)-N-((3RS,4SR)-3-hydroxytetrahydro-2H-pyran-4-yl)-1H-pyrrolo[3,2-b]pyridine-3-carboxamide]?
A: EC50 (human M1): 28.6 nM; EC50 (M1 receptor): 58.7 nM

Q: With `COCC(O)CNC(=O)c1cn(Cc2ccc(-c3cnn(C)c3)cc2F)c2cccnc12` (racemic) [Example 7, rac-1-[2-Fluoro-4-(1-methyl-1H-pyrazol-4-yl)-benzyl]-1H-pyrrolo[3,2-b]pyridine-3-carboxylic acid (2-hydroxy-3-methoxy-propyl)-amide] as the compound, how does the EC50 (human M1; [1]) read?
A: The EC50 was 232 nM.

Q: Which EC50 (human M1) does the source give for `Cn1cc(-c2ccc(Cn3cc(C(=O)N[C@H]4CCCC[C@H]4O)c4ncccc43)c(F)c2)cn1` (racemic) [Example 37] here?
A: The EC50 was 162 nM.

Q: What about the EC50 (M1 receptor) of the same compound?
A: Its EC50 is 123 nM.

Q: How did the EC50 (human M1) turn out when `Cn1cc(-c2ccc(Cn3cc(C(=O)N[C@H]4CCCC[C@]4(C)O)c4ncccc43)c(F)c2)cn1` (racemic) [Example 39, 1-(2-fluoro-4-(1-methyl-1H-pyrazol-4-yl)benzyl)-N-((1SR,2SR)-2-hydroxy-2-methylcyclohexyl)-1H-pyrrolo[3,2-b]pyridine-3-carboxamide] was run?
A: Its EC50 is 177 nM.

Q: And the EC50 (M1 receptor)?
A: Its EC50 is 264 nM.

Q: With `Cn1cc(-c2ccc(Cn3cc(C(=O)N[C@H]4CCCC[C@@]4(C)O)c4ncccc43)c(F)c2)cn1` (racemic) [Example 40, 1-(2-fluoro-4-(1-methyl-1H-pyrazol-4-yl)benzyl)-N-((1SR,2RS)-2-hydroxy-2-methylcyclohexyl)-1H-pyrrolo[3,2-b]pyridine-3-carboxamide] as the compound, how does the EC50 (human M1) read?
A: Its EC50 is 47.9 nM.

Q: What about the EC50 (M1 receptor) of the same compound?
A: Its EC50 is 63.2 nM.

Q: With `Cn1cc(-c2ccc(Cn3cc(C(=O)N[C@H]4CCOC[C@@H]4O)c4ncccc43)cn2)cn1` (racemic) [Example 57, N-((3RS,4SR)-3-hydroxytetrahydro-2H-pyran-4-yl)-1-((6-(1-methyl-1H-pyrazol-4-yl)pyridin-3-yl)methyl)-1H-pyrrolo[3,2-b]pyridine-3-carboxamide] as the compound, how does the EC50 (human M1) read?
A: The EC50 was 143 nM.

Q: What about the EC50 (M1 receptor) of the same compound?
A: Its EC50 is 133 nM.

Q: Which EC50 (human M1; [1]) does the source give for `C[C@@H](O)CNC(=O)c1cn(Cc2ccc(-c3cnn(C)c3)cc2F)c2cccnc12` [Example 9] here?
A: The EC50 was 459 nM.

Q: For `C[C@H](O)CNC(=O)c1cn(Cc2ccc(-c3cnn(C)c3)cc2F)c2cccnc12` [Example 10], which EC50 (human M1; [1]) is on record?
A: The EC50 was 477 nM.

Q: For `Cn1cc(-c2ccc(Cn3cc(C(=O)NC[C@@H](O)CO)c4ncccc43)c(F)c2)cn1` [Example 15, 1-[2-Fluoro-4-(1-methyl-1H-pyrazol-4-yl)-benzyl]-1H-pyrrolo[3,2-b]pyridine-3-carboxylic acid ((R)-2,3-dihydroxy-propyl)-amide], which EC50 (human M1; [1]) is on record?
A: Its EC50 is 333 nM.

Q: `Cn1cc(-c2ccc(Cn3cc(C(=O)N[C@@H]4CCC[C@H]4O)c4ncccc43)c(F)c2)cn1` [Example 16, 1-[2-Fluoro-4-(1-methyl-1H-pyrazol-4-yl)-benzyl]-1H-pyrrolo[3,2-b]pyridine-3-carboxylic acid ((1R,2R)-2-hydroxy-cyclopentyl)-amide] was tested. Which EC50 (human M1) did it give?
A: The EC50 was 397 nM.

Q: Which EC50 (human M1) does the source give for `CC(C)[C@H](CO)NC(=O)c1cn(Cc2ccc(-c3cnn(C)c3)cc2F)c2cccnc12` [Example 21, 1-[2-Fluoro-4-(1-methyl-1H-pyrazol-4-yl)-benzyl]-1H-pyrrolo[3,2-b]pyridine-3-carboxylic acid ((R)-1-hydroxymethyl-2-methyl-propyl)-amide] here?
A: Its EC50 is 201 nM.

Q: For `CCC[C@@H](CO)NC(=O)c1cn(Cc2ccc(-c3cnn(C)c3)cc2F)c2cccnc12` [Example 23, 1-[2-Fluoro-4-(1-methyl-1H-pyrazol-4-yl)-benzyl]-1H-pyrrolo[3,2-b]pyridine-3-carboxylic acid ((S)-1-hydroxymethyl-butyl)-amide], which EC50 (human M1) is on record?
A: The EC50 was 205 nM.

Q: How did the EC50 (human M1; [1]) turn out when `CC(C)C[C@@H](CO)NC(=O)c1cn(Cc2ccc(-c3cnn(C)c3)cc2F)c2cccnc12` [Example 25, 1-[2-Fluoro-4-(1-methyl-1H-pyrazol-4-yl)-benzyl]-1H-pyrrolo[3,2-b]pyridine-3-carboxylic acid ((S)-1-hydroxymethyl-3-methyl-butyl)-amide] was run?
A: Its EC50 is 233 nM.

Q: With `Cn1cc(-c2ccc(Cn3cc(C(=O)Nc4ccccc4CO)c4ncccc43)c(F)c2)cn1` [Example 29, 1-[2-Fluoro-4-(1-methyl-1H-pyrazol-4-yl)-benzyl]-1H-pyrrolo[3,2-b]pyridine-3-carboxylic acid (2-hydroxymethyl-phenyl)-amide] as the compound, how does the EC50 (human M1; [1]) read?
A: The EC50 was 298 nM.

Q: Which EC50 (human M1; [1]) does the source give for `Cn1cc(-c2ccc(Cn3cc(C(=O)NCC(O)c4ccccc4)c4ncccc43)c(F)c2)cn1` (stereo not shown) [Example 31, 1-[2-Fluoro-4-(1-methyl-1H-pyrazol-4-yl)-benzyl]-1H-pyrrolo[3,2-b]pyridine-3-carboxylic acid (2-hydroxy-2-phenyl-ethyl)-amide] here?
A: Its EC50 is 429 nM.

Q: `Cc1ccc(NC(=O)c2cn(Cc3ccc(-c4cnn(C)c4)cc3F)c3cccnc23)c(CO)c1` [Example 33, 1-[2-Fluoro-4-(1-methyl-1H-pyrazol-4-yl)-benzyl]-1H-pyrrolo[3,2-b]pyridine-3-carboxylic acid (2-hydroxymethyl-4-methyl-phenyl)-amide] was tested. Which EC50 (human M1; [1]) did it give?
A: The EC50 was 282 nM.

Q: Which EC50 (human M1; [1]) does the source give for `Cc1cccnc1NC(=O)c1cn(Cc2ccc(-c3cnn(C)c3)cc2F)c2cccnc12` [Example 35, 1-[2-Fluoro-4-(1-methyl-1H-pyrazol-4-yl)-benzyl]-1H-pyrrolo[3,2-b]pyridine-3-carboxylic acid (3-methyl-pyridin-2-yl)-amide] here?
A: Its EC50 is 320 nM.

Q: `CO[C@H]1CCCC[C@@H]1NC(=O)c1cn(Cc2ccc(-c3cnn(C)c3)cc2F)c2cccnc12` [Example 38, 1-[2-Fluoro-4-(1-methyl-1H-pyrazol-4-yl)-benzyl]-1H-pyrrolo[3,2-b]pyridine-3-carboxylic acid ((1S,2S)-2-methoxy-cyclohexyl)-amide] was tested. Which EC50 (human M1; [1]) did it give?
A: The EC50 was 369 nM.

Q: `Cn1cc(-c2ccc(Cn3cc(C(=O)N[C@@H]4COCC[C@H]4O)c4ncccc43)c(F)c2)cn1` [Example 42, 1-(2-fluoro-4-(1-methyl-1H-pyrazol-4-yl)benzyl)-N-((3R,4R)-4-hydroxytetrahydro-2H-pyran-3-yl)-1H-pyrrolo[3,2-b]pyridine-3-carboxamide] was tested. Which EC50 (human M1) did it give?
A: Its EC50 is 487 nM.

Q: Which EC50 (human M1; [1]) does the source give for `O=C(N[C@H]1CCCC[C@@H]1O)c1cn(Cc2ccc(Br)cc2)c2cccnc12` [Example 50, 1-(4-bromobenzyl)-N-((1S,2S)-2-hydroxycyclohexyl)-1H-pyrrolo[3,2-b]pyridine-3-carboxamide] here?
A: The EC50 was 319 nM.

Q: How did the EC50 (human M1) turn out when `Cn1cc(-c2cccc(Cn3cc(C(=O)N[C@H]4CCCC[C@@H]4O)c4ncccc43)c2)cn1` [Example 51, N-((1S,2S)-2-hydroxycyclohexyl)-1-(3-(1-methyl-1H-pyrazol-4-yl)benzyl)-1H-pyrrolo[3,2-b]pyridine-3-carboxamide] was run?
A: Its EC50 is 443 nM.

Q: `N#Cc1ccc(Cn2cc(C(=O)N[C@H]3CCCC[C@@H]3O)c3ncccc32)c(F)c1` [Example 53, 1-(4-cyano-2-fluorobenzyl)-N-((1S,2S)-2-hydroxycyclohexyl)-1H-pyrrolo[3,2-b]pyridine-3-carboxamide] was tested. Which EC50 (human M1) did it give?
A: Its EC50 is 321 nM.

Q: Which EC50 (human M1) does the source give for `O=C(N[C@H]1CCCC[C@@H]1O)c1cn(Cc2ccc(Cl)cc2)c2cccnc12` [Example 54, 1-(4-chlorobenzyl)-N-((1S,2S)-2-hydroxycyclohexyl)-1H-pyrrolo[3,2-b]pyridine-3-carboxamide] here?
A: The EC50 was 264 nM.
